Reference: patent publication US11331369B2, “Endoparasitic depsipeptides” (Zoetis Services LLC, priority 2017, dated 2022)

Experiments:
Format in all cases: cell-based
[1] = test system: third stage larvae of Haemonchus contortus; experiment: Haemonchus contortus L3 (HcL3) Assay; conditions: 96 h, read-out: HcL3 Minimum Effective Dose (MED)
[2] = test system: microfilariae of Dirofilaria immitis; experiment: Dirofilaria immitis, Microfilaria (DiMF) In vitro Assay; conditions: 72 h, read-out: DiMF Minimum Effective Dose (MED), approximately 72 hours incubation, microfilariae assessed for survival or paralysis
[3] = test system: 4th stage larvae (L4) of Dirofilaria immitis; experiment: Dirofilaria immitis, L4 Stage (DiL4) In Vitro Assay; conditions: Dirofilaria immitis, 72 h, read-out: DiL4 Minimum Effective Dose (MED), approximately 72 hours incubation; L4 larvae assessed for survival or paralysis

SMILES	minimal effective concentration [1]	minimal effective concentration [2]	minimal effective concentration [3]
CC(C)C[C@H]1C(=O)O[C@H](Cc2ccc(C(C3CC3)n3cc(OC(C)C)cn3)cc2)C(=O)N(C)[C@@H](CC(C)C)C(=O)O[C@H](C)C(=O)N(C)[C@@H](CC(C)C)C(=O)O[C@H](Cc2ccc(C(C3CC3)n3cc(OC(C)C)cn3)cc2)C(=O)N(C)[C@@H](CC(C)C)C(=O)O[C@H](C)C(=O)N1C (stereo partly drawn) [Example 1c-5, (3S,6R,9S,12R,15S,18R,21S,24R)-6,18-bis(4-(cyclopropyl(4-isopropoxy-1H-pyrazol-1-yl)methyl)benzyl)-3,9,15,21-tetraisobutyl-4,10,12,16,22,24-hexamethyl-1,7,13,19-tetraoxa-4,10,16,22-tetraazacyclotetracosan-2,5,8,11,14,17,20,23-octaone]	≤ 1 µM	0.001 to 0.01 µM	0.0001 to 0.001 µM
CC(C)C[C@H]1C(=O)O[C@H](Cc2ccc(Cn3cc(Br)cn3)cc2)C(=O)N(C)[C@@H](CC(C)C)C(=O)O[C@H](C)C(=O)N(C)[C@@H](CC(C)C)C(=O)O[C@H](Cc2ccc(Cn3cccn3)cc2)C(=O)N(C)[C@@H](CC(C)C)C(=O)O[C@H](C)C(=O)N1C [Example 1a-16, (3S,6R,9S,12R,15S,18R,21S,24R)-6-(4-((1H-pyrazol-1-yl)methyl)benzyl)-18-(4-((4-bromo-1H-pyrazol-1-yl)methyl)benzyl)-3,9,15,21-tetraisobutyl-4,10,12,16,22,24-hexamethyl-1,7,13,19-tetraoxa-4,10,16,22-tetraazacyclotetracosan-2,5,8,11,14,17,20,23-octaone]	1 to 10 µM	0.001 to 0.01 µM	0.0001 to 0.001 µM
COc1ccc(-c2ccnn2Cc2ccc(C[C@H]3OC(=O)[C@H](CC(C)C)N(C)C(=O)[C@@H](C)OC(=O)[C@H](CC(C)C)N(C)C(=O)[C@@H](Cc4ccc(Cn5nccc5-c5ccc(OC)nc5)cc4)OC(=O)[C@H](CC(C)C)N(C)C(=O)[C@@H](C)OC(=O)[C@H](CC(C)C)N(C)C3=O)cc2)cn1 [Example 1b-190, (3S,6R,9S,12R,15S,18R,21S,24R)-3,9,15,21-tetraisobutyl-6,18-bis(4-((5-(6-methoxypyridin-3-yl)-1H-pyrazol-1-yl)methyl)benzyl)-4,10,12,16,22,24-hexamethyl-1,7,13,19-tetraoxa-4,10,16,22-tetraazacyclotetracosan-2,5,8,11,14,17,20,23-octaone]	1 to 10 µM	0.001 to 0.01 µM	0.0001 to 0.001 µM
COCOc1cnn(Cc2ccc(C[C@H]3OC(=O)[C@H](CC(C)C)N(C)C(=O)[C@@H](C)OC(=O)[C@H](CC(C)C)N(C)C(=O)[C@@H](Cc4ccc(Cn5cc(OCOC)cn5)cc4)OC(=O)[C@H](CC(C)C)N(C)C(=O)[C@@H](C)OC(=O)[C@H](CC(C)C)N(C)C3=O)cc2)c1 [Example 1b-201, (3S,6R,9S,12R,15S,18R,21S,24R)-3,9,15,21-tetraisobutyl-6,18-bis[[4-[[4-(methoxymethoxy)pyrazol-1-yl]methyl]phenyl]methyl]-4, 10,12,16,22,24-hexamethyl-1,7,13,19-tetraoxa-4,10,16,22-tetrazacyclotetracosane-2,5,8,11,14,17,20,23-octaone]	1 to 10 µM	0.001 to 0.01 µM	0.001 to 0.01 µM
CC(C)C[C@H]1C(=O)O[C@H](Cc2ccc(Cn3nccc3C(C)C)cc2)C(=O)N(C)[C@@H](CC(C)C)C(=O)O[C@H](C)C(=O)N(C)[C@@H](CC(C)C)C(=O)O[C@H](Cc2ccc(Cn3nccc3C(C)C)cc2)C(=O)N(C)[C@@H](CC(C)C)C(=O)O[C@H](C)C(=O)N1C [Example 1b-126, (3S,6R,9S,12R,15S,18R,21S,24R)-3,9,15,21-tetraisobutyl-6,18-bis(4-((5-isopropyl-1H-pyrazol-1-yl)methyl)benzyl)-4,10,12,16,22,24-hexamethyl-1,7,13,19-tetraoxa-4,10,16,22-tetraazacyclotetracosan-2,5,8,11,14,17,20,23-octaone]	1 to 10 µM	0.001 to 0.01 µM	0.0001 to 0.001 µM
Cc1ccc(C#N)n1Cc1ccc(C[C@H]2OC(=O)[C@H](CC(C)C)N(C)C(=O)[C@@H](C)OC(=O)[C@H](CC(C)C)N(C)C(=O)[C@@H](Cc3ccccc3)OC(=O)[C@H](CC(C)C)N(C)C(=O)[C@@H](C)OC(=O)[C@H](CC(C)C)N(C)C2=O)cc1 [Example 10-30, 1-(4-(((2R,5S,8R,11S,14R,17S,20R,23S)-14-benzyl-5,11,17,23-tetraisobutyl-4,8,10,16,20,22-hexamethyl-3,6,9,12,15,18,21,24-octaoxo-1,7,13,19-tetraoxa-4,10,16,22-tetraazacyclotetracosan-2-yl)methyl)benzyl)-5-methyl-1H-pyrrole-2-carbonitrile]	1 to 10 µM	0.001 to 0.01 µM	0.0001 to 0.001 µM
CC#Cc1cnn(Cc2ccc(C[C@H]3OC(=O)[C@H](CC(C)C)N(C)C(=O)[C@@H](C)OC(=O)[C@H](CC(C)C)N(C)C(=O)[C@@H](Cc4ccc(Cn5cc(C#CC)cn5)cc4)OC(=O)[C@H](CC(C)C)N(C)C(=O)[C@@H](C)OC(=O)[C@H](CC(C)C)N(C)C3=O)cc2)c1 [Example 1b-118, (3S,6R,9S,12R,15S,18R,21S,24R)-3,9,15,21-tetraisobutyl-4,6,10,16,18,22-hexamethyl-12,24-bis(4-((4-(prop-1-yn-1-yl)-1H-pyrazol-1-yl)methyl)benzyl)-1,7,13,19-tetraoxa-4,10,16,22-tetraazacyclotetracosan-2,5,8,11,14,17,20,23-octaone]	1 to 10 µM	0.001 to 0.01 µM	0.0001 to 0.001 µM
CC(C)C[C@H]1C(=O)O[C@H](Cc2ccc(Cn3nccc3C3CC3C)cc2)C(=O)N(C)[C@@H](CC(C)C)C(=O)O[C@H](C)C(=O)N(C)[C@@H](CC(C)C)C(=O)O[C@H](Cc2ccc(Cn3nccc3C3CC3C)cc2)C(=O)N(C)[C@@H](CC(C)C)C(=O)O[C@H](C)C(=O)N1C (stereo partly drawn) [Example 1b-222, (3S,6R,9S,12R,15S,18R,21S,24R)-3,9,15,21-tetraisobutyl-4,6,10,16,18,22-hexamethyl-12,24-bis(4-((5-(2-methylcyclopropyl)-1H-pyrazol-1-yl)methyl)benzyl)-1,7,13,19-tetraoxa-4,10,16,22-tetraazacyclotetracosan-2,5,8,11,14,17,20,23-octaone]	≤ 1 µM	0.01 to 0.1 µM	0.0001 to 0.001 µM
Cc1ncc(-c2ccnn2Cc2ccc(C[C@H]3OC(=O)[C@H](CC(C)C)N(C)C(=O)[C@@H](C)OC(=O)[C@H](CC(C)C)N(C)C(=O)[C@@H](Cc4ccc(Cn5nccc5-c5cnc(C)nc5)cc4)OC(=O)[C@H](CC(C)C)N(C)C(=O)[C@@H](C)OC(=O)[C@H](CC(C)C)N(C)C3=O)cc2)cn1 [Example 1b-207, (3S,6R,9S,12R,15S,18R,21S,24R)-3,9,15,21-tetraisobutyl-4,6,10,16,18,22-hexamethyl-12,24-bis(4-((5-(2-methylpyrimidin-5-yl)-1H-pyrazol-1-yl)methyl)benzyl)-1,7,13,19-tetraoxa-4,10,16,22-tetraazacyclotetracosan-2,5,8,11,14,17,20,23-octaone]	1 to 10 µM	0.001 to 0.01 µM	0.001 to 0.01 µM
CC(C)C[C@H]1C(=O)O[C@H](Cc2ccc(Cn3nccc3C(F)(F)F)cc2)C(=O)N(C)[C@@H](CC(C)C)C(=O)O[C@H](C)C(=O)N(C)[C@@H](CC(C)C)C(=O)O[C@H](Cc2ccc(Cn3ccc(C(F)(F)F)n3)cc2)C(=O)N(C)[C@@H](CC(C)C)C(=O)O[C@H](C)C(=O)N1C [Example 1a-26, (3S,6R,9S,12R,15S,18R,21S,24R)-3,9,15,21-tetraisobutyl-4,6,10,16,18,22-hexamethyl-12-(4-((3-(trifluoromethyl)-1H-pyrazol-1-yl)methyl)benzyl)-24-(4-((5-(trifluoromethyl)-1H-pyrazol-1-yl)methyl)benzyl)-1,7,13,19-tetraoxa-4,10,16,22-tetraazacyclotetracosan-2,5,8,11,14,17,20,23-octaone]	1 to 10 µM	0.01 to 0.1 µM	0.0001 to 0.001 µM
CC(C)C[C@H]1C(=O)O[C@H](Cc2ccc(Cn3nccc3Br)cc2)C(=O)N(C)[C@@H](CC(C)C)C(=O)O[C@H](C)C(=O)N(C)[C@@H](CC(C)C)C(=O)O[C@H](Cc2ccc(Cn3ccc(Br)n3)cc2)C(=O)N(C)[C@@H](CC(C)C)C(=O)O[C@H](C)C(=O)N1C [Example 1a-31, (3S,6R,9S,12R,15S,18R,21S,24R)-6-(4-((3-bromo-1H-pyrazol-1-yl)methyl)benzyl)-18-(4-((5-bromo-1H-pyrazol-1-yl)methyl)benzyl)-3,9,15,21-tetraisobutyl-4,10,12,16,22,24-hexamethyl-1,7,13,19-tetraoxa-4,10,16,22-tetraazacyclotetracosan-2,5,8,11,14,17,20,23-octaone]	1 to 10 µM	0.01 to 0.1 µM	0.0001 to 0.001 µM
CCOc1cnn(Cc2ccc(C[C@H]3OC(=O)[C@H](CC(C)C)N(C)C(=O)[C@@H](C)OC(=O)[C@H](CC(C)C)N(C)C(=O)[C@@H](Cc4ccc(Cn5ncc(OCC)c5C)cc4)OC(=O)[C@H](CC(C)C)N(C)C(=O)[C@@H](C)OC(=O)[C@H](CC(C)C)N(C)C3=O)cc2)c1C [Example 1b-197, (3S,6R,9S,12R,15S,18R,21S,24R)-6,18-bis[[4-[(4-ethoxy-5-methyl-pyrazol-1-yl)methyl]phenyl]methyl]-3,9,15,21-tetraisobutyl-4,10,12,16,22,24-hexamethyl-1,7,13,19-tetraoxa-4,10,16,22-tetrazacyclotetracosane-2,5,8,11,14,17,20,23-octaone]	1 to 10 µM	0.001 to 0.01 µM	0.001 to 0.01 µM
